In the METLIN SMRT retention time set (Domingo-Almenara et al. 2019) one finds RP-LC retention time data, which are given here for 79 compounds.

The series can be described thus: gradient 5% acetonitrile 3 min, to 50% in 2 min, to 85% in 15 min, held 3 min, 100 µL/min. As to conditions: column: Zorbax Extend-C18 2.1 x 50 mm; eluents: water / acetonitrile, 0.1% formic acid. In a few lines: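 Over 3 months, pure standards in mixtures of ~100 molecules were run by HPLC coupled to a quadrupole time-of-flight mass spectrometer in positive and negative ionization mode. The column was a Zorbax Extend-C18 (2.1 × 50 mm, 1.8 μm) at 100 μL/min, eluted with water and acetonitrile each holding 0.1% formic acid, with 40 μL dead and 900 μL dwell volumes. Retention time was determined from adduct peaks chosen by software and checked manually.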
The compound `Cn1cc(C2=CCN(S(=O)(=O)c3cccc(C#N)c3)CC2)c2cccnc21` yielded an RP-LC retention time of 904 s.
Then `COc1cc(-c2nc3ccccn3c2Nc2ccc3c(c2)OCCO3)ccc1O`, with 629 s.
The result for `Cc1ccc(C)c(NC(=O)Cn2c(C)nc3onc(C)c3c2=O)c1` reads 800 s.
Then `Cc1ccc(-n2c(N3CCCC(C(=O)NCc4ccc(C)c(C)c4)C3)nc3ccsc3c2=O)cc1` (centres undefined), with 987 s; and `CCc1nc2c(NC(=O)COC)cccn2n1`, with 646 s.
For `COc1ccc(CNC(=O)C2CCN(c3ccc(SCc4ccccc4)nn3)CC2)c(OC)c1`, the RP-LC retention time was 767 s.
The result for `O=C(c1ccn2c(-c3ccccc3Br)nnc2c1)N1CCN(c2ccccn2)CC1` reads 555 s.
The result for `Cc1cc(C)n(CC(O)COc2ccc(C(=O)c3ccc(Cl)cc3)cc2)n1` (centres undefined) reads 848 s.
The result for `COc1ccc(-c2cn3c(CC(=O)Nc4cccc(C#N)c4)csc3n2)cc1` reads 756 s.
For `Cc1ccccc1CNC(=O)C1(C)Oc2cccnc2NC1=O` (centres undefined), the RP-LC retention time came out at 702 s.
The result for `COCC(=O)N(CC(=O)N1CCc2sccc2C1COc1ccc(C)cc1C)CC1CC1` (centres undefined) reads 982 s.
In turn, `COc1ccc(S(=O)(=O)NCc2c(-c3ccccc3)nc3sc(C)nn23)cc1` came in with an RP-LC retention time of 832 s.
The result for `O=C([C@@H]1C[C@H](F)CN1S(=O)(=O)Cc1ccc(Cl)cc1)N1CCCCC1` reads 881 s.
In the case of `COc1ccc(S(=O)(=O)N2CCCC(C(=O)Nc3ccc4c(c3)OCO4)C2)cc1Cl` (centres undefined), the RP-LC retention time is 941 s.
On to `COc1ccc2[nH]c(=O)c(CCC(=O)NCCN(C)C3CCCCC3)cc2c1`, for which the RP-LC retention time was determined as 598 s.
The result for `CCCn1nnc(NCc2ccc(-c3ccc(Br)cc3Cl)o2)n1` reads 1230 s.
The result for `Cc1ccc(C2c3cc(OCC(=O)N4CCCC4)ccc3CCN2C(=O)C2CC2)cc1` (centres undefined) reads 824 s.
In the case of `O=C(Cn1cnc(-c2cccs2)cc1=O)NCCn1nc(-c2ccco2)ccc1=O`, the RP-LC retention time was found to be 636 s.
`CN1CCCc2cc(C(=O)NCc3ccccc3Cl)sc21`: the RP-LC retention time was found to be 964 s.
Then `Cc1ccc(S(=O)(=O)NC2CCN(C(=O)Cc3c[nH]c4ccccc34)CC2)cc1`, with 775 s; and `O=C(c1csc(N2CCN(c3ccc(F)cc3)CC2)n1)N1CCCCC1`, with 1000 s.
Turning to `COCCN1CCC2(CC1)CN(Cc1ccc(OC)c(C)c1)Cc1ccccc1O2`, the RP-LC retention time amounted to 598 s.
The result for `c1ccc(-c2nc3ccccc3s2)nc1` reads 1010 s.
Then `COc1ccccc1CCNC(=O)Cn1ccc2ccccc21`, with 891 s; and `Cc1c(C(=O)N2CCCCC2C)sc2ncn(CC(=O)N3CC(C)CC(C)C3)c(=O)c12` (centres undefined), with 846 s.
Then `CCc1nc2cc(-c3noc(Cc4cccc(F)c4)n3)ccc2o1`, with 1050 s; and `O=C(Nc1ccccc1F)C1COc2ccccc2C1` (centres undefined), with 874 s; and `O=c1c2cc3c(cc2nc(SCc2nc(-c4cccc(F)c4)no2)n1CC1CCCO1)OCO3` (centres undefined), with 1110 s.
Compound `COc1ccc(NC(=O)C2CCN(S(=O)(=O)c3ccc4[nH]c5c(c4c3)CCCCC5)CC2)cc1` displayed an RP-LC retention time of 1040 s.
Then `CN(C)C(=O)c1ccc2c(c1)nc(CN(C)C(=O)Nc1ccc(Cl)cc1)n2C`, with 616 s.
In turn, `Cc1ccc(F)c(NS(=O)(=O)c2ccc3c(c2)C(=O)N(C)c2ncccc2O3)c1` yielded an RP-LC retention time of 924 s.
Turning to `O=c1c2scc(-c3cccc(F)c3)c2ncn1Cc1cccc(Br)c1`, the RP-LC retention time came to 1180 s.
The result for `Cc1ccc2ncn(C3CCN(C(=O)Nc4ccc(C)c(Cl)c4)CC3)c(=O)c2c1` reads 888 s.
The result for `CC1CCCCN1CCN(CCC(=O)N1CCNCC1)C(=O)c1ccc(C(F)(F)F)cc1` (centres undefined) reads 569 s; that for `CC(C)(C)C(=O)Nc1ccc(N2CCN(CCC#N)CC2)cc1C(=O)O`, 611 s.
For `CNC(=O)C1CCN(S(=O)(=O)Cc2ccccc2)CC1`, the RP-LC retention time came out at 655 s.
On to `CCn1ccc2c(cc(C(=O)Nc3ccc(F)cc3C)n2C)c1=O`, for which the RP-LC retention time came to 726 s.
For the compound `CCc1ccccc1NC(=O)C1CCN(c2nnc3ccccn23)CC1`, the RP-LC retention time came to 660 s.
Consider `Cc1ccc(C(=O)NCc2nn(C)c3ccccc23)c(C)c1`, for which the RP-LC retention time turned out to be 857 s.
Then `O=C(Nc1ccc2c(c1)OCCO2)N1CCCC1c1nc(CCOCC2CC2)no1` (centres undefined), with 788 s; and `CCOc1ccc(NC(=O)C2CCN(S(=O)(=O)c3cc(-c4noc(C)n4)sc3C)CC2)cc1`, with 1000 s.
The result for `Cc1ccc(CNC(=O)c2ccc(-c3ccsc3)nc2)o1` reads 824 s; that for `CC(C)C[C@H](NC(=O)Cn1cnc2ccccc2c1=O)C(=O)O`, 649 s; that for `CCc1ccccc1N(C)C(=O)c1cc2c(=O)n(CC)c3ccccc3n2n1`, 1010 s.
Then `FC1(c2nc(Cc3ccccc3)no2)CCN(Cc2ccsc2)CC1`, with 708 s; and `CCCc1noc(CN2N=C(C(=O)N3CCC(C)CC3)S(=O)(=O)c3ccc(C)cc32)n1`, with 1010 s.
In the case of `C=CCn1c(NCc2ccccc2Cl)nc2ccccc21`, the RP-LC retention time was determined as 699 s.
In the case of `Cc1ccccc1Nc1c(-c2ccc(O)cc2)nc2ccccn12`, the RP-LC retention time was determined as 653 s.
The result for `COc1ccc(Nc2nc(N3CCN(c4ncccn4)CC3)nc3c2C(=O)CC(C)(C)C3)cc1` reads 1250 s; that for `Cc1c(-c2noc(-c3ccc4cc[nH]c4c3)n2)nnn1Cc1cccc(F)c1`, 996 s; that for `Cc1cc(C)cc(NC(=O)c2cc3sccc3n2C)c1`, 1090 s.
Then `CCn1cnc(S(=O)(=O)N2CCC(C(=O)Nc3cc(OC)ccc3OC)CC2)c1`, with 728 s; and `COc1ccc(CCc2nc(-c3ccc4oc(C)nc4c3)no2)cc1`, with 1210 s; and `CC(C)Cc1cc(-c2nnc3sc(-c4ccc(N(C)C)cc4)nn23)n[nH]1`, with 1060 s.
The result for `Cn1c(=O)c2cc(C(=O)NCc3ccccc3Cl)sc2n(C)c1=O` reads 795 s; that for `O=S(=O)(c1ccc(F)c(F)c1)N1CCc2nc(-c3ccc(Cl)cc3)ncc2C1`, 1230 s; that for `CCOc1cc(=O)n2c(c1C(=O)OCc1ccc(Cl)cc1)CCCC2`, 970 s.
For `CCn1cc(CCNC(=O)Nc2cccc(C(C)=O)c2)c2cccnc21`, the RP-LC retention time is 665 s.
The result for `O=C(NCCN1CCN(C(=O)c2ccc(Br)cc2)CC1)C(=O)NCc1ccco1` reads 626 s; that for `CCCCNC(=O)CCCN1C(=O)CCn2nc(-c3cn(C)c4ccccc34)cc21`, 781 s.
As to `CC(C)N1C(=O)c2cccnc2Sc2cc(C(=O)NCC3CCCO3)ccc21` (centres undefined), the RP-LC retention time was found to be 695 s.
In the case of `Cc1ccc(Cn2c(N3CCCC(C(=O)NC4CCCC4)C3)nc3ccsc3c2=O)cc1` (centres undefined), the RP-LC retention time stood at 967 s.
The result for `Cc1nnc(N2CCCC(C(=O)NCCCN3CCCC3=O)C2)c2nn(-c3ccccc3)c(C)c12` (centres undefined) reads 616 s; that for `CCCn1c(=O)sc2cc(S(=O)(=O)N3CCC(C(=O)N(C)Cc4ccco4)CC3)ccc21`, 901 s; that for `CCOC(=O)C1=C(N)Oc2cc(C)n(CCN(C)C)c(=O)c2C1c1ccccc1F` (centres undefined), 648 s.
The result for `CC(=O)Nc1ccc(CC(=O)NC(C)C(=O)N2CCCc3ccccc32)cc1` (centres undefined) reads 685 s.
The result for `CCCNc1cc(N2CCC(CCC(=O)NCC(C)C)CC2)ncn1` reads 642 s.
Consider `CCOc1cc(C(=O)N2CCCC(C)(C(=O)NCc3ccc(F)cc3)C2)cc(OCC)c1OCC` (centres undefined), for which the RP-LC retention time came out at 978 s.
`O=C(C1CC(=O)N(c2n[nH]c3cccc(F)c23)C1)N1CCN(c2ccc(Cl)cc2)CC1` (centres undefined) displayed an RP-LC retention time of 817 s.
Then `COc1cccc2c1OC1(C)CC2C(S(=O)(=O)c2ccc(C(C)C)cc2)C(=O)N1C` (centres undefined), with 1040 s; and `O=C(Nc1ccc2c(c1)CCCN2C(=O)c1ccco1)c1ccccc1C(F)(F)F`, with 792 s.
Then `Cc1ccccc1CN1CCCN(c2ncccc2-c2nc(C(C)C)no2)CC1`, with 725 s; and `CCn1c(C(=O)N2CCN(c3cccc(C)c3)C(C)C2)cc2sccc21` (centres undefined), with 1050 s; and `CCN(CC)CCCNC(=O)C1c2ccccc2C(=O)N1Cc1ccc(C)cc1` (centres undefined), with 633 s.
Then `Fc1ccccc1N1CCN(c2ncc3c(n2)CCN(Cc2cccc(F)c2F)C3)CC1`, with 826 s.
Regarding `Cc1cccc(NC(=O)NCC(c2cccnc2)c2cn(C)c3ccccc23)c1` (centres undefined), the RP-LC retention time was 723 s.
The result for `CCN1CCCC1CNC(=O)CCC(=O)N1CCCn2nc(-c3cn(C)c4ccccc34)cc21` (centres undefined) reads 620 s; that for `O=C(Nc1ccccc1)c1csc(-c2ccc(N3CCCC3)nc2)n1`, 728 s; that for `O=C(NCCN1CCCCC1)C1CCCN(c2cnc3nccnc3c2)C1` (centres undefined), 562 s.
